Reference: publication PMC6704710, “Preclinical evaluation of 3D185, a novel potent inhibitor of FGFR1/2/3 and CSF-1R, in FGFR-dependent and macrophage-dominant cancer models” (Journal of Experimental & Clinical Cancer Research : CR, 2019)

How the values were obtained:
Test in all cases: Eurofins kinase panel
Format in all cases: biochemical
Conditions in all cases: read-out: Inhibition rate (%)
MSSK1(h) = target: T1, MSSK1(h) (Homo sapiens, UniProt Q9UPE1)
T1 construct: purchased Eurofins (KinaseProfiler)

TAO2(h) = target: T2, TAO2(h) (Homo sapiens, UniProt Q9UL54)
T2 construct: purchased Eurofins (KinaseProfiler)
T2 sequence (Q9UL54 1-1235): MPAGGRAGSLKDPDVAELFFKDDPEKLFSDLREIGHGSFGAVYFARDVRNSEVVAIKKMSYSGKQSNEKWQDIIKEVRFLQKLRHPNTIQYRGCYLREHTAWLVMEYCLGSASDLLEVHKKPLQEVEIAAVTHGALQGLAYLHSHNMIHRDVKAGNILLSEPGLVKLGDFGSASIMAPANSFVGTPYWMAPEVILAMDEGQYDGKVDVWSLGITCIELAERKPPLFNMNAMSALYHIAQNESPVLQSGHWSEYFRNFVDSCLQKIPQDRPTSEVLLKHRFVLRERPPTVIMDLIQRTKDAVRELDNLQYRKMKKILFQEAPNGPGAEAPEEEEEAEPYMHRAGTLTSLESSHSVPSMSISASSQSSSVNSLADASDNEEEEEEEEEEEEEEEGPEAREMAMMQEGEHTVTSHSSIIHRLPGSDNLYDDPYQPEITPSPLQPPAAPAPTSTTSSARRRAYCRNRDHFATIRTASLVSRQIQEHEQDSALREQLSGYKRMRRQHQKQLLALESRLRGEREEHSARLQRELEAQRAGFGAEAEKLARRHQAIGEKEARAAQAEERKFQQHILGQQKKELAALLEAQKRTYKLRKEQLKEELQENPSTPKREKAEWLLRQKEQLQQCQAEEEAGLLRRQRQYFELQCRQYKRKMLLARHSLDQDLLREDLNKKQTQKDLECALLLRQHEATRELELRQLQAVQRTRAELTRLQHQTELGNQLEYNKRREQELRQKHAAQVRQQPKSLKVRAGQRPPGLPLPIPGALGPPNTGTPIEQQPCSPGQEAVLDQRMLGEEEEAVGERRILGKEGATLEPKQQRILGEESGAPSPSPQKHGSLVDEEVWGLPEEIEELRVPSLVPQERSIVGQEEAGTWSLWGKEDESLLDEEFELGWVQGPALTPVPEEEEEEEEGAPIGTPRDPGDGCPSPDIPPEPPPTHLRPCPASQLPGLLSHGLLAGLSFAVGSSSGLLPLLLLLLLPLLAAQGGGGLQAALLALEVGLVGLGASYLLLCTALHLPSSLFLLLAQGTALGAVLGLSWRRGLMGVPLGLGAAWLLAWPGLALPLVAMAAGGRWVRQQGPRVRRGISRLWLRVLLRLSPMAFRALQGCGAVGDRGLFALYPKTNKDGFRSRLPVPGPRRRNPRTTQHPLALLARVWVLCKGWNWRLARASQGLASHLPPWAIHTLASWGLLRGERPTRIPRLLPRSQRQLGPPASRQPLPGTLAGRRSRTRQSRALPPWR

CLK4(h) = target: T3, CLK4(h) (Homo sapiens, UniProt Q9HAZ1)
T3 construct: purchased Eurofins (KinaseProfiler)

CaMKIß(h) = target: T4, CaMKIß(h) (Homo sapiens, UniProt Q6P2M8)
T4 construct: purchased Eurofins (KinaseProfiler)

SRPK1(h) = target: T5, SRPK1(h) (Homo sapiens, UniProt Q96SB4)
T5 construct: purchased Eurofins (KinaseProfiler)

PKCθ(h) = target: T6, PKCθ(h) (Homo sapiens, UniProt Q04759)
T6 construct: purchased Eurofins (KinaseProfiler)
T6 sequence (Q04759 whole entry): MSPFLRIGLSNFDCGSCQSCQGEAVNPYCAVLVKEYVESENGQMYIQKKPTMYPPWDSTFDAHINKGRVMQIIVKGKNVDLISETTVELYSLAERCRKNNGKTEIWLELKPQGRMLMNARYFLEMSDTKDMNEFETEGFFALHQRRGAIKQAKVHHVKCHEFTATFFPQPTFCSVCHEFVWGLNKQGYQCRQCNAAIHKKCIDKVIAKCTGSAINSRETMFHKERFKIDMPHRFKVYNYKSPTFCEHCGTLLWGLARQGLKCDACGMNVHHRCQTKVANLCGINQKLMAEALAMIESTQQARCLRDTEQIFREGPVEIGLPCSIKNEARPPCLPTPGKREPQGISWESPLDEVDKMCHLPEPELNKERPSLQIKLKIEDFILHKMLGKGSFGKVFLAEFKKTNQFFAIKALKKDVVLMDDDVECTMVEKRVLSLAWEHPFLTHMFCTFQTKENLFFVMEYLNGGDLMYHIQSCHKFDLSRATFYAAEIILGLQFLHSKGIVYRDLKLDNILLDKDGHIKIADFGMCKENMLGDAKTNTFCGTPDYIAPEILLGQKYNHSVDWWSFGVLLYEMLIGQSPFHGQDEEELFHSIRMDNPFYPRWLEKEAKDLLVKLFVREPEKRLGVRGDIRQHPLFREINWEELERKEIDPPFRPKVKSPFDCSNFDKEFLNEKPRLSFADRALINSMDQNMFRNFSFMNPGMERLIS

T3 sequence (Q9HAZ1 whole entry): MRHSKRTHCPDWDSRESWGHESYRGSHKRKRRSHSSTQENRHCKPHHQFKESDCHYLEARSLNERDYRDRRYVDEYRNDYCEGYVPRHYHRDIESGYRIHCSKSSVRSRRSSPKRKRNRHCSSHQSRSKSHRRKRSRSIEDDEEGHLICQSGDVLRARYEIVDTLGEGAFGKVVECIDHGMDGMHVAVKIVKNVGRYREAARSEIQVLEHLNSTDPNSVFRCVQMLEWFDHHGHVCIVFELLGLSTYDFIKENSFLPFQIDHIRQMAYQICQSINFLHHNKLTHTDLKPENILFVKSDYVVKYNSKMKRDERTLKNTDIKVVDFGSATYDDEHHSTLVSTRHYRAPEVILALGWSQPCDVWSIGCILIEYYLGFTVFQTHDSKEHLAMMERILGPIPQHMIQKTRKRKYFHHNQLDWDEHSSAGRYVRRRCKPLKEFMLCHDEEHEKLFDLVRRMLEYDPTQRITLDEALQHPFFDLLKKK
T1 sequence (Q9UPE1 whole entry): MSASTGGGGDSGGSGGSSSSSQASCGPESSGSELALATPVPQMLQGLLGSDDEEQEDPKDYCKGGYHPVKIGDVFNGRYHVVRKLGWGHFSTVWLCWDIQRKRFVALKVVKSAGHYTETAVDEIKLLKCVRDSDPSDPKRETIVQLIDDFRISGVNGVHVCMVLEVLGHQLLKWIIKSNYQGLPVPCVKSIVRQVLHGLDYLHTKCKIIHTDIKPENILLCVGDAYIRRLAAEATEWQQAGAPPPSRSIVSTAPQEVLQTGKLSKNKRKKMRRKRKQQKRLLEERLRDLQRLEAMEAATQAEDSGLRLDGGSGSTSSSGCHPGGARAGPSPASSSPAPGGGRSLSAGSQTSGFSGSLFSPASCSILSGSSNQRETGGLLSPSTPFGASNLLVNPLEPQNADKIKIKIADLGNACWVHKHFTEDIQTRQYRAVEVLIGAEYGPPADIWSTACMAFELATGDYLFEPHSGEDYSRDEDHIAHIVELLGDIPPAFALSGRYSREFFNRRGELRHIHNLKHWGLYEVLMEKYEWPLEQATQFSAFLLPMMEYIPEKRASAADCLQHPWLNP
T4 sequence (Q6P2M8 whole entry): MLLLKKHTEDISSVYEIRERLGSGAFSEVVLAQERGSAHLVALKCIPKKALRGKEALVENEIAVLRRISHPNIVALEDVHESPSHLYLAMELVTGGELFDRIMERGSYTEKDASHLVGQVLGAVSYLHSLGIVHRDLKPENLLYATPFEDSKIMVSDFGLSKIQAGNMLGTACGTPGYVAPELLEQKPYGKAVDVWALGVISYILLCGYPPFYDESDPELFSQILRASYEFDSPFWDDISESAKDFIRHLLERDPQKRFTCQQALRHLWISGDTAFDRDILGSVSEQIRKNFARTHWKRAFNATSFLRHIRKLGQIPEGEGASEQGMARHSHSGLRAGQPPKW
T5 sequence (Q96SB4 whole entry): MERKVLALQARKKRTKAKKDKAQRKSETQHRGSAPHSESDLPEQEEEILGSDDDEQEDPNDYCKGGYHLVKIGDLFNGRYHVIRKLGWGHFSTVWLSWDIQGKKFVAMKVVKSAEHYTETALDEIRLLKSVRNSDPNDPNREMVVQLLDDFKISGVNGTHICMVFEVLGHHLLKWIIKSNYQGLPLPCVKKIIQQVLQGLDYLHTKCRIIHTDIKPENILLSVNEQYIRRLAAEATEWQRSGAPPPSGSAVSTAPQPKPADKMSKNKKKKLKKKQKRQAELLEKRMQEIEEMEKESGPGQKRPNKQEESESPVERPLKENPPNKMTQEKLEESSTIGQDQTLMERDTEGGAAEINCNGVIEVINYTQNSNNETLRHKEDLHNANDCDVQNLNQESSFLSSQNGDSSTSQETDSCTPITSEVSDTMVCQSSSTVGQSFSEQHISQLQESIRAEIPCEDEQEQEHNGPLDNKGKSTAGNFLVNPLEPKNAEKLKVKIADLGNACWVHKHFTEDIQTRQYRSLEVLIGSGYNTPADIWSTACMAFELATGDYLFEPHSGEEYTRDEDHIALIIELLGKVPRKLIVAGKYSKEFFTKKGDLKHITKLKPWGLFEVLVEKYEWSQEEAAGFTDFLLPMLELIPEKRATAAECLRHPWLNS

With `COc1cc(OC)c(Cl)c(-c2ccc3c(NC(=O)c4ccc(N5CCNC(C)(C)C5)cc4)n[nH]c3n2)c1Cl` [3D185] the inhibition at 0.01 µM (MSSK1(h); 10 nM) was 3%, the inhibition at 0.1 µM (MSSK1(h); 100 nM) was 11% and the inhibition at 1 µM (MSSK1(h); 1000 nM) was 18%. It also gave an inhibition at 0.01 µM (TAO2(h); 10 nM) of 12%, an inhibition at 0.1 µM (TAO2(h); 100 nM) of 28% and an inhibition at 1 µM (TAO2(h); 1000 nM) of 66%. It also gave an inhibition at 0.01 µM (CLK4(h); 10 nM) of 5%, an inhibition at 0.1 µM (CLK4(h); 100 nM) of 19% and an inhibition at 1 µM (CLK4(h); 1000 nM) of 27%. For the same compound, the inhibition at 0.01 µM (CaMKIß(h); 10 nM) was -2%, the inhibition at 0.1 µM (CaMKIß(h); 100 nM) was 6% and the inhibition at 1 µM (CaMKIß(h); 1000 nM) was 32%. The inhibition at 0.01 µM (SRPK1(h); 10 nM) was 13%, the inhibition at 0.1 µM (SRPK1(h); 100 nM) was 9% and the inhibition at 1 µM (SRPK1(h); 1000 nM) was 12%. The inhibition at 0.01 µM (PKCθ(h); 10 nM) was -3%, the inhibition at 0.1 µM (PKCθ(h); 100 nM) was -4% and the inhibition at 1 µM (PKCθ(h); 1000 nM) was 1%.
